Results reported in PubChem BioAssay (NCI).
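96-well plates; 48 h exposure; 5 concentrations. Endpoints by linear interpolation between flanking doses. Not reached: highest tested concentration assigned. GI50: concentration for 50% inhibition of growth. TGI: total growth inhibition.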

Columns and labels:
Experiment in all cases: inhibition of tumour cell growth, NCI panel, 48 h
[1] = test system: A549 NSCLC
[2] = test system: EKVX NSCLC
[3] = test system: HOP-62 NSCLC
[4] = test system: HOP-92 NSCLC
[5] = test system: MALME-3M melanoma
[6] = test system: NCI/ADR-RES ovarian
[7] = test system: SK-MEL-28 melanoma
[8] = test system: TK-10 renal
[9] = test system: K-562 leukemia
[10] = test system: SR leukemia

Compound	TGI [1]	TGI [2]	TGI [3]	TGI [4]	TGI [5]	TGI [6]	TGI [7]	TGI [8]	GI50 [1]	GI50 [3]	GI50 [4]	GI50 [9]	TGI [9]	GI50 [5]	GI50 [6]	GI50 [7]	GI50 [8]	GI50 [2]	GI50 [10]	TGI [10]
O=C1c2ccccc2C(O)(O)C1(O)C1(O)C(=O)c2ccccc2C1(O)O (configuration not stated)	> 100 µM	> 100 µM	54.1 µM	> 100 µM	54.3 µM	> 100 µM	> 100 µM	58.1 µM	–	–	–	–	–	–	–	–	–	–	–	–
COc1ccc(-c2nc(-c3nc4ccc(OC)cc4[nH]3)c3ccccn23)cc1	46.7 µM	–	> 100 µM	8.4 µM	70.5 µM	57.7 µM	> 100 µM	25.6 µM	3.17 µM	5.07 µM	2310 nM	3600 nM	> 100 µM	13.3 µM	3.86 µM	18.5 µM	2650 nM	–	–	–
COC(=O)/C(C)=C(/CCC1(C)OCCO1)O[Si](C)(C)C	> 100 µM	> 100 µM	> 100 µM	> 100 µM	> 100 µM	–	–	> 100 µM	–	–	–	–	> 100 µM	–	–	–	–	–	–	–
CCC[CH2][Sn]1([CH2]CCC)[O]C(=O)c2cccnc2[O]1	33 µM	8.04 µM	20.9 µM	4.63 µM	4.11 µM	–	11.9 µM	8.23 µM	18.2 µM	3.95 µM	1010 nM	1850 nM	6.01 µM	1.56 µM	–	3.92 µM	2730 nM	2540 nM	1650 nM	6.19 µM
CCc1cc(C(=O)OC)cn1C(=N)c1ccc(Cl)cc1	> 100 µM	> 100 µM	> 100 µM	> 100 µM	> 100 µM	–	> 100 µM	> 100 µM	–	–	–	–	> 100 µM	–	–	–	–	–	–	–
Cc1cc(=O)n(-c2ccccc2C)c(C)n1	> 100 µM	> 100 µM	> 100 µM	> 100 µM	> 100 µM	–	> 100 µM	> 100 µM	–	–	–	–	> 100 µM	–	–	–	–	–	–	–
COc1cc([N+](=O)[O-])c(OC)cc1-c1nc2sc(Cl)cn2c1/C(N)=N/C(=N)N	> 53 µM	40.9 µM	17.3 µM	24 µM	26.6 µM	> 100 µM	–	24.3 µM	18.4 µM	6.32 µM	7060 nM	2010 nM	> 100 µM	5.71 µM	61.4 µM	–	7310 nM	9660 nM	–	–
COc1cc2c(c(OC)c1OC)-c1ccc(SC)c(=O)cc1C(CO)C2 (configuration not stated)	> 100 µM	> 100 µM	> 100 µM	> 100 µM	–	–	–	> 100 µM	< 0.01 µM	< 0.01 µM	< 10 nM	< 10 nM	23.7 µM	< 0.01 µM	–	–	> 100000 nM	< 10 nM	< 10 nM	23.8 µM
Cc1ccc2nc(NC(=O)C(=O)C(C#N)c3nc4ccccc4s3)sc2c1 (configuration not stated)	–	> 100 µM	31.9 µM	75.3 µM	> 100 µM	–	> 100 µM	85.3 µM	–	–	–	–	76.6 µM	–	–	–	–	–	–	–
CCS(CC)(CC)CC1CCCC2=CCC(P(=O)(c3ccccc3)c3ccccc3)CC21 (configuration not stated)	18 µM	28.4 µM	32 µM	16.4 µM	40 µM	–	28.4 µM	27 µM	–	–	–	–	39.9 µM	–	–	–	–	–	–	25.5 µM
